Type in all cases: in vivo, mouse
Assay [1] can be described thus: Blood glucose in female C57BL/6J ob/ob mice (Example 11). As to conditions: 1 mg/day ip. As to the method:
D. Measurement of blood glucose: Blood was drawn from the tail vein of each mouse 2 h before the onset of the dark period at the beginning of the study, and after 2, 4, and 6 days of peptide treatment. The blood was applied to a test strip, and glucose levels were measured with a Glucometer Elite (Bayer, Elkhart, Ind.) glucose monitor.

Assay [2] in a line: Truncated and D-amino acid-substituted analogs: body weight, food and water intake in female C57BL/6J ob/ob mice, 7 days. As to conditions: for Cumulative water intake / Cumulative food intake / Heavier (+) or lighter (−) than initial weight / Weight gain (+) or loss (−) / Cumulative food intake g/mouse3 g/mouse3 / Decrease(%) of cumulative food intake: 1 mg/day ip; for Cumulative food intake / Heavier (+) or lighter (−) than initial weight / Weight gain (+) or loss (−) / Increase (+) or decrease (−) of cumulative food intake: D-analog series; for Increase (+) or decrease (−) of cumulative water intake / Increase (+) or decrease (−) of cumulative food intake / Decrease(%) of cumulative food intake: vs vehicle; for Food intake relative to OB3: truncated analogs. As to the method: A. Housing: 6–8-week old homozygous female obese (ob/ob) and wild type (+1+) mice (C57BL/6J, Jackson Laboratory, Bar Harbor, Maine) were maintained in a temperature-controlled room (24° C.) in the Albany Medical College Animal Resources Facility under alternating 12-h light and dark periods (lights on 0700–1900 h). The animals were housed three per cage, and allowed food and water ad libitum for six days following their arrival.
Food and water remaining after 24 h was measured to the nearest 0.1 g and 0.1 ml, respectively, and the average amount consumed per mouse was calculated (mean±SEM, n=6). The mice were weighed once daily between 0900 and 1100 h on an Acculab V-333 electronic balance (Cole-Parmer, Vernon Hills, Ill.)
C. […] Control mice received 0.2 ml PBS (ip) only.
Female C7BL/6J ob/ob mice were given a single ip injection of vehicle (PBS, pH 7.2), LEP-(116–130) or truncated peptide (1 mg/200 ul PBS) for seven consecutive days. Daily changes in body weight compared to pretreatment weights of vehicle-injected control and peptide-treated mice were analyzed.

Assay [3] in a line: Epitope mapping: body weight and food intake in female C57BL/6J ob/ob mice, 7 daily ip injections. As to conditions: 7 days; for Cumulative food intake / Percent heavier (+) or lighter (−) than initial weight / Weight gain (+) or loss (−): 1 mg/day ip. The protocol:
Animal procedures. Feeding and weighing schedules, as well as peptide administration protocols, are as described in EXAMPLE 8, supra.
Statistical analysis. Changes in body weight and differences in food intake between peptide-treated and vehicle-injected control mice were analyzed by analysis of variance (ANOVA) and considered significant when P<0.05.
Female ob/ob mice (n=6 per group) were given a single ip injection of 0.2 ml of vehicle (PBS, pH 7.2) or leptin-related synthetic peptide amide in 0.2 ml PBS for 7 consecutive days. Daily changes in body weight compared to pretreatment weights in both vehicle-injected control and peptide-treated mice are shown in FIG. 4. […] There was no evidence of weight loss in response to peptide treatment.

Marks after values point to notes of the source that are not given here. Square brackets hold non-standard residues; d marks the D form. Ends that are not written are not given here.

“Ser-Cys-Ser-Leu-Pro-[D-Gln]-Thr (SCSLP[dQ]T) [[D-Gln-6]-OB3]”: the Serum glucose level in assay [1] (Day 2) was found to be 394.0 ± 45.4 mg/dL. The Serum glucose level in assay [1] (Day 4) was 354.5 ± 17.3 mg/dL. This substance also yielded a Serum glucose level in assay [1] (Day 6) of 358.0 ± 28.1 mg/dL. Also, in assay [2] (7 days), the Cumulative water intake turned out to be 57.1 ± 1.0 ml/mouse, the Cumulative food intake was 43.5 ± 0.9 g/mouse, the “Heavier (+) or lighter (−) than initial weight” value is “+4.6%” and the “Weight gain (+) or loss (−)” value is on record as “+2.1 ± 0.14 g”. In addition, the “Food intake of D-analogs” value in assay [2] (7 days) is “reduced food intake when compared to vehicle-injected control mice, but not to the level seen in mice receiving OB3”. Besides, in assay [2], the “Increase (+) or decrease (−) of cumulative water intake” value is reported as −11.1% and the “Increase (+) or decrease (−) of cumulative food intake” value is on record as −13.7%.

Turning to “D F I P G L H P I L S L S K M (DFIPGLHPILSLSKM) [LEP(61–75)]”, in assay [3], the Cumulative food intake was determined as 44.6 ± 2.3 gm/mouse, the “Percent heavier (+) or lighter (−) than initial weight” value (from here on “Percent heavier (+) or lighter”) is “+24.0%” and the “Weight gain (+) or loss (−)” value was “+5.9 g”.

In assay [1] (Day 2), “[D-Ser]-Cys-Ser-Leu-Pro-Gln-Thr ([dS]CSLPQT) [[D-Ser-1]-OB3]” gave a Serum glucose level of 356.0 ± 21.2 mg/dL. Further, in assay [1] (Day 4), the Serum glucose level was determined as 360.1 ± 25.1 mg/dL. In addition, the Serum glucose level in assay [1] (Day 6) stood at 287.0 ± 24.4 mg/dL. Further, in assay [2] (7 days), the Cumulative water intake is reported as 58.0 ± 1.8 ml/mouse, the Cumulative food intake is 44.4 ± 1.4 g/mouse, the “Heavier (+) or lighter (−) than initial weight” value was “+4.6%” and the “Weight gain (+) or loss (−)” value is on record as “+3.3 ± 0.18 g”. Moreover, the “Food intake of D-analogs” value in assay [2] (7 days) is listed as “reduced food intake when compared to vehicle-injected control mice, but not to the level seen in mice receiving OB3”. Also, in assay [2], the “Increase (+) or decrease (−) of cumulative water intake” value was −9.7% and the “Increase (+) or decrease (−) of cumulative food intake” value is listed as −11.9%.

On to SCSLPQTSG [LEP-(116–124)], for which, in assay [2] (7 days), the “Cumulative food intake g/mouse3 g/mouse3” value is 34.6 ± 0.9 g/mouse, the “Decrease(%) of cumulative food intake” value is reported as 22.6% and the “Food intake relative to OB3” value is “equivalent to that of mice treated with OB3”.

Turning to “V Y Q Q V L T S L P S Q N V L (VYQQVLTSLPSQNVL) [LEP(81–95)]”, in assay [3], the Cumulative food intake is reported as 39.5 ± 1.1 gm/mouse, the “Percent heavier (+) or lighter” value is listed as “+26.0%” and the “Weight gain (+) or loss (−)” value is “+6.2 g”.

In the case of SCSLPQ [LEP-(116–121)], in assay [2] (7 days), the “Cumulative food intake g/mouse3 g/mouse3” value is reported as 41.6 ± 1.4 g/mouse, the “Decrease(%) of cumulative food intake” value was found to be 6.8% and the “Food intake less than vehicle-injected control mice” value was found to be 6.8%.

SCSLPQTS [LEP-(116–123)]: in assay [2] (7 days), the “Cumulative food intake g/mouse3 g/mouse3” value was 34.3 ± 10 g/mouse, the “Decrease(%) of cumulative food intake” value was found to be 23.3% and the “Food intake relative to OB3” value is recorded as “equivalent to that of mice treated with OB3”.

Consider “S L S K M D Q T L A V Y Q Q V (SLSKMDQTLAVYQQV) [LEP(71–85)]”, for which, in assay [3], the Cumulative food intake was 35.5 ± 1.1^b gm/mouse, the “Percent heavier (+) or lighter” value was “+20.0%”, the “Weight gain (+) or loss (−)” value was “+5.0 g” and the “Food intake vs vehicle” value is listed as “significantly (P=0.01) less than vehicle-injected control mice”.

Take “S Q N V L Q I A N D L E N L R (SQNVLQIANDLENLR; not fully specified (N-terminus)) [LEP(91–105)]”: in assay [3], the Cumulative food intake is 36.1 ± 0.7^b gm/mouse, the “Percent heavier (+) or lighter” value is “+18.6%”, the “Weight gain (+) or loss (−)” value is “+5.2 g” and the “Food intake vs vehicle” value was “significantly (P=0.01) less than vehicle-injected control mice”.
